Measurements reported in PubChem BioAssay AID294 (DTP/NCI, 2004).
“And” between values parts separate entries of the source, which are not always exact repeats. Identical values can stand only once.

Tested on: MX-1 breast xenograft, nude mice, tumor weight change
Assay: NCI In Vivo Anticancer Drug Screen. Data for tumor model Human Mammary Carcinoma MX-1 Xenograft (subcutaneous) in NU/NU Swiss (nude) mice
Settings: endpoint: optimum tumor weight change, higher = larger tumour
Description: The antitumor activity of compounds was measured in mice bearing transplantable tumors. Survival or tumor size were measured and the results are expressed as the measurement made in the treated group (T) divided by the measurement made in the vehicle treated control group (C). The tumor model used in this assay is Human Mammary Carcinoma MX-1 Xenograft (subcutaneous) in NU/NU Swiss (nude) mice

[1] = dose: 50.0 mg/kg/injection, schedule: Q04DX003 (ip), vehicle: Klucel (hydroxypropylcellulose) (HPC)
[2] = dose: 12.5 mg/kg/injection, schedule: Q04DX003 (ip), vehicle: saline
[3] = dose: 25.0 mg/kg/injection, schedule: Q04DX003 (ip), vehicle: saline
[4] = dose: 50.0 mg/kg/injection, schedule: Q04DX003 (ip), vehicle: saline
[5] = dose: 400.0 mg/kg/injection, schedule: Q04DX003 (ip), vehicle: saline with Tween-80
[6] = dose: 25.0 mg/kg/injection, schedule: Q04DX003 (ip), vehicle: Klucel (hydroxypropylcellulose) (HPC)
[7] = dose: 100.0 mg/kg/injection, schedule: Q04DX003 (ip), vehicle: Klucel (hydroxypropylcellulose) (HPC)
[8] = dose: 800.0 mg/kg/injection, schedule: Q04DX003 (ip), vehicle: saline with Tween-80
[9] = dose: 100.0 mg/kg/injection, schedule: Q04DX003 (ip), vehicle: saline

CCCCNCCCNCCCNC(=O)c1csc(-c2csc(CCNC(=O)C(NC(=O)C(C)C(O)C(C)NC(=O)C(NC(=O)c3nc(C(CC(N)=O)NCC(N)C(N)=O)nc(N)c3C)C(OC3OC(CO)C(O)C(O)C3OC3OC(CO)C(O)C(OC(N)=O)C3O)c3cnc[nH]3)C(C)O)n2)n1 (configuration not stated)
T/C (dose: 7.5 mg/kg/injection, schedule: Q04DX003 (ip), vehicle: saline): 49 % of control and 57 % of control | T/C (dose: 30.0 mg/kg/injection, schedule: Q04DX003 (ip), vehicle: saline): 29 % of control (2×) and 49 % of control | T/C (dose: 60.0 mg/kg/injection, schedule: Q04DX003 (ip), vehicle: saline): 5 % of control and 12 % of control and 18 % of control | T/C (dose: 120.0 mg/kg/injection, schedule: Q04DX003 (ip), vehicle: saline): 2 % of control

CN(CO)c1nc(N(C)CO)nc(N(C)CO)n1
T/C (dose: 25.0 mg/kg/injection, schedule: Q01DX005 (ip), vehicle: saline): 3 % of control and 16 % of control | T/C (dose: 25.0 mg/kg/injection, schedule: Q04DX005 (ip), vehicle: saline): 45 % of control and 58 % of control | T/C (dose: 50.0 mg/kg/injection, schedule: Q01DX005 (ip), vehicle: saline): -7 % of control and 4 % of control | T/C (dose: 100.0 mg/kg/injection, schedule: Q01DX005 (ip), vehicle: saline): -97 % of control and -91 % of control | T/C (dose: 100.0 mg/kg/injection, schedule: Q07DX005 (ip), vehicle: saline): 24 % of control and 28 % of control | T/C (dose: 200.0 mg/kg/injection, schedule: Q01DX005 (ip), vehicle: saline): -94 % of control | T/C (dose: 200.0 mg/kg/injection, schedule: Q04DX005 (ip), vehicle: saline): -87 % of control and -82 % of control | T/C (dose: 200.0 mg/kg/injection, schedule: Q07DX005 (ip), vehicle: saline): -96 % of control

COc1cc([C@@H]2c3cc4c(c(O)c3C[C@H]3COC(=O)[C@@H]32)OCO4)cc(OC)c1O
T/C (dose: 3.13 mg/kg/injection, schedule: Q04DX003 (ip), vehicle: saline): 92 % of control | T/C (dose: 6.25 mg/kg/injection, schedule: Q04DX003 (ip), vehicle: saline): 57 % of control

O=[N+]([O-])/C=C\c1ccc2c(c1)OCO2
T/C [1]: 83 % of control | T/C (dose: 200.0 mg/kg/injection, schedule: Q04DX003 (ip), vehicle: Klucel (hydroxypropylcellulose) (HPC)): 81 % of control

OCC1OC(n2cnc3cncnc32)C(O)C1O (configuration not stated)
T/C [2]: 88 % of control | T/C [3]: 94 % of control | T/C [4]: 108 % of control

O=P1(NCCCl)OCCCN1CCCl (configuration not stated)
T/C [3]: 57 % of control | T/C [4]: 56 % of control

CC(C)CCCCCCCCCCCCC(=O)NCC(=O)NC1C(O)C(O)C(Nc2ncnc3nc[nH]c23)OC1C(O)CO (configuration not stated)
T/C (dose: 3.0 mg/kg/injection, schedule: Q04DX003 (ip), vehicle: suspension in saline): 91 % of control | T/C (dose: 6.0 mg/kg/injection, schedule: Q04DX003 (ip), vehicle: suspension in saline): 109 % of control | T/C (dose: 12.0 mg/kg/injection, schedule: Q04DX003 (ip), vehicle: suspension in saline): 30 % of control

CC1(CO)C(O)CCC2(C)C1CCC1CC3CC12CCC3(O)CO (configuration not stated)
T/C (dose: 100.0 mg/kg/injection, schedule: Q04DX003 (ip), vehicle: saline with Tween-80): 50 % of control | T/C (dose: 200.0 mg/kg/injection, schedule: Q04DX003 (ip), vehicle: saline with Tween-80): 61 % of control | T/C [5]: 54 % of control

N[C@@H](Cc1ccc(N(CCCl)CCCl)cc1)C(=O)O
T/C (dose: 2.0 mg/kg/injection, schedule: Q04DX003 (ip), vehicle: Klucel (hydroxypropylcellulose) (HPC)): 49 % of control | T/C (dose: 4.0 mg/kg/injection, schedule: Q04DX003 (ip), vehicle: Klucel (hydroxypropylcellulose) (HPC)): 37 % of control | T/C (dose: 4.0 mg/kg/injection, schedule: Q04DX003 (ip), vehicle: suspension in saline): 19 % of control and 36 % of control | T/C (dose: 8.0 mg/kg/injection, schedule: Q04DX003 (ip), vehicle: Klucel (hydroxypropylcellulose) (HPC)): -42 % of control

CS(=O)(=O)OCCN(CCOS(C)(=O)=O)c1ccc(C=Nc2ccc(-c3csc(COc4ccccc4)n3)cc2)cc1
T/C [6]: 45 % of control | T/C [1]: 64 % of control | T/C [7]: 99 % of control

COc1cccc2c1C(=O)c1c(O)c3c(c(O)c1C2=O)C[C@@](O)(/C(C)=N\O)C[C@@H]3OC1CC(N)C(O)C(C)O1 (some centres not stated)
T/C [3]: 66 % of control

CNC(=O)ON(C(C)=O)C(=O)NC
T/C [2]: 81 % of control | T/C [3]: 108 % of control

O=NN(CCCl)C(=O)NC1CCCCC1
T/C (dose: 12.5 mg/kg/injection, schedule: Q04DX003 (ip), vehicle: Klucel (hydroxypropylcellulose) (HPC)): 75 % of control

CCCC(=O)OCc1cc(=O)n(C)c2c3c4c(cc12)c(C)cc(=O)n4CO3
T/C [1]: 48 % of control | T/C [7]: 70 % of control

Cc1c(N)nc(C(CC(N)=O)NCC(N)C(N)=O)nc1C(=O)NC(C(=O)NC(C)C(O)CC(=O)NC(C(=O)NC(OC1OC(C)C(N)C(O)C1O)C(O)c1nc(-c2nc(C(=O)NCCCC(N)CC(=O)NCCCNCCCCN)cs2)cs1)C(C)O)C(OC1OC(CO)C(O)C(O)C1OC1OC(CO)C(O)C(OC(N)=O)C1O)c1cnc[nH]1 (configuration not stated)
T/C (dose: 4.0 mg/kg/injection, schedule: Q04DX003 (ip), vehicle: saline): 28 % of control | T/C (dose: 8.0 mg/kg/injection, schedule: Q04DX003 (ip), vehicle: saline): 11 % of control

C[C@]12CC[C@@H]3c4ccc(OC(=O)Cc5ccc(N(CCCl)CCCl)cc5)cc4CC[C@H]3[C@@H]1CC[C@@H]2OC(=O)Cc1ccc(N(CCCl)CCCl)cc1
T/C [8]: 50 % of control

O=S(CCCl)CCCl
T/C [6]: 75 % of control | T/C [7]: 34 % of control

C[n+]1c(-c2cccc3ccccc23)c2cc(N)ccc2c2ccccc21
T/C (dose: 3.0 mg/kg/injection, schedule: Q04DX003 (ip), vehicle: saline): 76 % of control and 82 % of control | T/C (dose: 6.0 mg/kg/injection, schedule: Q04DX003 (ip), vehicle: saline): 78 % of control

Nc1ccc(Cl)cc1N
T/C [5]: 109 % of control | T/C [8]: 110 % of control | T/C (dose: 1600.0 mg/kg/injection, schedule: Q04DX003 (ip), vehicle: saline with Tween-80): 117 % of control | T/C (dose: 3200.0 mg/kg/injection, schedule: Q04DX003 (ip), vehicle: saline with Tween-80): 80 % of control

O=c1[nH]cnc2n[nH]nc12
T/C (dose: 400.0 mg/kg/injection, schedule: Q04DX003 (ip), vehicle: Klucel (hydroxypropylcellulose) (HPC)): 99 % of control

N/C(=N\O)c1cn(C2OC(CO)C(O)C2O)c2ncnc(N)c12 (configuration not stated)
T/C (dose: 5.0 mg/kg/injection, schedule: Q04DX003 (ip), vehicle: Klucel (hydroxypropylcellulose) (HPC)): 109 % of control | T/C (dose: 10.0 mg/kg/injection, schedule: Q04DX003 (ip), vehicle: Klucel (hydroxypropylcellulose) (HPC)): 80 % of control | T/C (dose: 20.0 mg/kg/injection, schedule: Q04DX003 (ip), vehicle: Klucel (hydroxypropylcellulose) (HPC)): 82 % of control

Nc1cc2[nH]cnc2c(=O)[nH]1
T/C [4]: 58 % of control | T/C [9]: 87 % of control | T/C (dose: 200.0 mg/kg/injection, schedule: Q04DX003 (ip), vehicle: saline): 59 % of control

CC(CN1CC(=O)NC(=O)C1)N1CC(=O)NC(=O)C1 (configuration not stated)
T/C (dose: 100.0 mg/kg/injection, schedule: Q04DX003 (ip), vehicle: suspension in saline): 65 % of control | T/C (dose: 200.0 mg/kg/injection, schedule: Q04DX003 (ip), vehicle: suspension in saline): 73 % of control | T/C (dose: 400.0 mg/kg/injection, schedule: Q04DX003 (ip), vehicle: suspension in saline): 55 % of control

Oc1ccc(O)cc1
T/C [9]: 110 % of control
